In patent US12606520B2, “Calpain-2 inhibitor compounds and methods of treatment” (WESTERN UNIVERSITY OF HEALTH SCIENCES, priority 2020, dated 2026):

How the values were obtained:
[1] = molecular target: T1, calpain-1 (Mus musculus, UniProt O35350); assay: Calpain-1 activity in WT mouse cerebellar homogenate (20 μM Ca2+), Suc-Leu-Tyr-AMC cleavage; format: biochemical; parameters: from tissue; host or cells: wild-type mouse cerebellar (P2) homogenate; settings: 20 μM calcium, read-out: IC50, 20 μM Ca^2+ (Calpain-1)
T1 sequence (O35350 1-713): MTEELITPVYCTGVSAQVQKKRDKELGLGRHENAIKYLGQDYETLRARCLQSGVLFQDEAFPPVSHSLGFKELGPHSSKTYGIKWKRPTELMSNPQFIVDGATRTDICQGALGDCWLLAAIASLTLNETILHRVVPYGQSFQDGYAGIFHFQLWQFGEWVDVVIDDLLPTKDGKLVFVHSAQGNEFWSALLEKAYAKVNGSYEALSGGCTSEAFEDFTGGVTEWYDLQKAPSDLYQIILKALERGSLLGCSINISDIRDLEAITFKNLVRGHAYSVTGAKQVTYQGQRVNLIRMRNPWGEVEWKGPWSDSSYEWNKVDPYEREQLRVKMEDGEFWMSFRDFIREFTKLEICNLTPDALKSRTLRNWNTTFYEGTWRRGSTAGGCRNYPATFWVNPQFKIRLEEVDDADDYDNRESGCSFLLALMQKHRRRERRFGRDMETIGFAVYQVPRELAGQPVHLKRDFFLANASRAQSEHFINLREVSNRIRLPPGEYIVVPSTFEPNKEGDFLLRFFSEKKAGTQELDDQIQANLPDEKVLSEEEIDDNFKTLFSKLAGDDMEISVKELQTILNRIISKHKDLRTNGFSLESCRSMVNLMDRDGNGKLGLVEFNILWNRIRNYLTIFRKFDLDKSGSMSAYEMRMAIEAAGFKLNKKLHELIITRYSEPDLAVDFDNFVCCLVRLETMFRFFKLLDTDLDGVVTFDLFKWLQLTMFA
T1 sequence (O88456 1-268 partner): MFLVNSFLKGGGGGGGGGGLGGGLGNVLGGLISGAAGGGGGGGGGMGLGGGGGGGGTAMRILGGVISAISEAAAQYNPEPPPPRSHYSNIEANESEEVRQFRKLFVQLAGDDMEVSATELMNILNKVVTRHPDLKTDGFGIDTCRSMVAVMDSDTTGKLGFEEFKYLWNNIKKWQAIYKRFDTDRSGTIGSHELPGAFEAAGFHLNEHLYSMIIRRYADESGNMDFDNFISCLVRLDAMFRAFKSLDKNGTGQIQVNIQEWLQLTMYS
Experimental: Cerebellar homogenates from wild-type (WT) or calpain-1 Knock-out (KO) mice were incubated with 20 μM calcium to activate calpain-1 or with 2 mM calcium to activate calpain-2, respectively, and increasing concentrations of NA112 (12). Calpain activity was measured by the cleavage of Succinyl-Leu-Tyr-7-amino-4-methylcoumarin (Suc-Leu-Tyr-AMC), resulting in increased fluorescence. Activity is normalized to the value measured in the presence of vehicle (DMSO).
WT or calpain-1 KO mouse cerebellar P2 homogenate (crude synaptosomal fraction) were used for measuring inhibitory activity of compounds against the mouse endogenous calpain-1/-2. Each reaction contains 100 ul of WT or calpain-1 KO mouse cerebellar P2 homogenate+0, 20 or 2000 uM Ca^2++0-10,000 nM NA184.
Calpain-1 activity=calpain activity under 20 uM Ca^2+ in WT mice

[2] = molecular target: T2, human calpain-1 (purified from erythrocytes, ecalpain-1) (Homo sapiens, UniProt P07384); assay: Inhibition of human calpain-1 purified from erythrocytes; format: biochemical
T2 construct: human calpain-1 (purified from erythrocytes, ecalpain-1); from tissue; host or cells: human erythrocytes
T2 sequence (P07384 1-714): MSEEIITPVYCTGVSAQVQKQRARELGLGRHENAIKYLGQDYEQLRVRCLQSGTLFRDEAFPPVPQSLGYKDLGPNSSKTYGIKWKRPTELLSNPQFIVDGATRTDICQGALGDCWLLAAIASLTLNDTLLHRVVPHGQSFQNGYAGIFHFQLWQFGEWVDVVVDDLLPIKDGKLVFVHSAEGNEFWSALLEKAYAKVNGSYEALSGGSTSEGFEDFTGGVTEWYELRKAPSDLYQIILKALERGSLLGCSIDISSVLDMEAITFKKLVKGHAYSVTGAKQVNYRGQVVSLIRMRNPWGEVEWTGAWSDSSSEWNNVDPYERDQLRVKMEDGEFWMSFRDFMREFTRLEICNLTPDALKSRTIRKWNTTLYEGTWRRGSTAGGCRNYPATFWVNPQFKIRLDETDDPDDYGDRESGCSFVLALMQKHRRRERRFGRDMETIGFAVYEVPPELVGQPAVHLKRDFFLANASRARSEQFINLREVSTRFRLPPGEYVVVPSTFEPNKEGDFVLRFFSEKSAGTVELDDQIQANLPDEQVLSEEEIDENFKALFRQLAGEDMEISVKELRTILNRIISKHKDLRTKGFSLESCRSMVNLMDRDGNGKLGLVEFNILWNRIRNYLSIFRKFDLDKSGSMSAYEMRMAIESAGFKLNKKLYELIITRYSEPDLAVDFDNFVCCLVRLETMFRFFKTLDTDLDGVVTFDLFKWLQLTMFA
T2 sequence (P04632 1-268 partner): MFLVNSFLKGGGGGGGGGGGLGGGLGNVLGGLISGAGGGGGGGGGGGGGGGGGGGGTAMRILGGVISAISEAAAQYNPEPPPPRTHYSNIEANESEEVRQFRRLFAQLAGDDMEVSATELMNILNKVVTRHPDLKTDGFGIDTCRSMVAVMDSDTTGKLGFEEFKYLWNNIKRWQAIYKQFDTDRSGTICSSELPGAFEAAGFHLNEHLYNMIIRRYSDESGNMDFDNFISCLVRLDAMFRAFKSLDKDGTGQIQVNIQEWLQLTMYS
Experimental: Various concentrations of NA112 in the liposomal formulation were incubated with human calpain-1 (purified from erythrocytes, ecalpain-1) or a recombinant human calpain-2 (hcalpain-2) and calpain activity assayed as in FIG. 1. IC50 were determined and transformed into Ki values (FIG. 10A, 10B). Values previously obtained with NA112 dissolved in DMSO are shown for comparison (FIG. 10B).
Cerebellar homogenates from wild-type (WT) or calpain-1 Knock-out (KO) mice were incubated with 20 μM calcium to activate calpain-1 or with 2 mM calcium to activate calpain-2, respectively, and increasing concentrations of NA184.
Like in NA112, there are 2 chiral centers in NA184. The inhibitory activity of the compounds NA184A (S-S isomer) and NA184B (S-R stereoisomer) against erythrocyte human calpain-1 (ecalpain-1) and recombinant human calpain-2 (hcalpain-2) were determined.

Question: For `CCC(NC(=O)[C@H](CC(C)C)NC(=O)NCc1ccccc1)C(=O)C(=O)NCc1cc(OC)cc(OC)c1` (mixture of isomers) [NA112, (2S)-2-(3-benzylureido)-N-(1-((3,5-dimethoxybenzyl)amino)-1,2-dioxopentan-3-yl)-4-methylpentanamide], which IC50 [1] is on record?
Answer: 1380 nM

Question: With `CCC(NC(=O)[C@H](CC(C)C)NC(=O)NCc1ccccc1)C(=O)C(=O)NCc1cccc(Cl)c1OC` (stereo partly drawn) [NA184, (2S)-2-(3-benzylureido)-N-(1-((3-chloro-2-methoxybenzyl)amino)-1,2-dioxopentan-3-yl)-4-methylpentanamide] as the compound, how does the IC50 [2] read?
Answer: 543 nM
